Results reported in US20170190671A1, “BIS(ARYL)CATECHOL DERIVATIVES AS HERBICIDES” (E I DU PONT DE NEMOURS AND COMPANY, priority 2014, published 2017).

What was measured:
[1] = tested on: ragweed (common ragweed, Ambrosia elatior); assay: Test E postemergence; assay type: in vivo; settings: scale 0 to 100
From the text: (§1) Seeds of plant species selected from corn (Zea mays), soybean (Glycine max), velvetleaf (Abutilon theophrasti), cocklebur (common cocklebur, Xanthium strumarium), lambsquarters (Chenopodium album), wild poinsettia (Euphorbia heterophylla), palmer pigweed (Amaranthus palmeri), waterhemp (common waterhemp, Amaranthus rudis), surinam grass (Brachiaria decumbens), large (Lg) crabgrass (Digitaria sanguinalis), Brazilian crabgrass (Digitaria horizontalis), fall panicum (Panicum dichotomiflorum), giant foxtail (Setaria faberii), green foxtail (Setaria viridis), goosegrass (Eleusine indica), johnsongrass (Sorghum halepense), ragweed (common ragweed, Ambrosia elatior), barnyardgrass (Echinochloa crus-galli), sandbur (southern sandbur, Cenchrus echinatus), arrowleaf sida (Sida rhombifolia), Italian ryegrass (Lolium multiflorum), dayflower (Virginia (VA) dayflower, Commelina virginica), field bindweed (Convolvulus arvensis), morningglory (Ipomoea coccinea), nightshade (eastern black nightshade, Solanum ptycanthum), kochia (Kochia scoparia), yellow nutsedge (Cyperus esculentus), horseweed (Conyza canadensis), and hairy beggarticks (Bidens pilosa), were planted into a silt loam soil and treated preemergence with test chemicals formulated in a non-phytotoxic solvent mixture which included a surfactant.
(§2) At the same time, plants from these crop and weed species and also waterhemp_RES1, (ALS & Triazine resistant common waterhemp, Amaranthus rudis), and waterhemp_RES2, (ALS & HPPD resistant common waterhemp, Amaranthus rudis) were planted in pots containing Redi-Earth® planting medium (Scotts Company, 14111 Scottslawn Road, Marysville, Ohio 43041) comprising spaghnum peat moss, vermiculite, wetting agent and starter nutrients were treated with postemergence applications of test chemicals formulated in the same manner. Plants ranged in height from 2 to 18 cm for postemergence treatments (1- to 4-leaf stage). Treated plants and controls were maintained in a greenhouse for 14 to 21 days, after which time all species were compared to controls and visually evaluated. Plant response ratings, summarized in Table E, are based on a scale of 0 to 100 where 0 is no effect and 100 is complete control. A dash (-) response means no test result.

[2] = tested on: Brazilian crabgrass (Digitaria horizontalis); assay: Test E postemergence; assay type: in vivo; settings: scale 0 to 100
From the text: as §1, §2

[3] = tested on: wild poinsettia (Euphorbia heterophylla); assay: Test E preemergence; assay type: in vivo; settings: scale 0 to 100
Procedure, shortened: (§3)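 Visual ratings from 0 = no effect to 100 = complete control, scored against untreated controls after 14 to 21 days in the greenhouse. Compounds, in a non-phytotoxic solvent mix with surfactant, went onto silt loam soil right after sowing (preemergence) or onto 2–18 cm plants at the 1- to 4-leaf stage (postemergence).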

[4] = tested on: johnsongrass (Sorghum halepense); assay: Test E preemergence; assay type: in vivo; settings: scale 0 to 100
Procedure, shortened: as §3

wild oat (Avenafatua) = assay: Test D postemergence; assay type: in vivo, Avena fatua; settings: scale 0 to 100
From the text: (§4) Seeds of plant species selected from bluegrass (annual bluegrass, Poa annua), blackgrass (Alopecurus myosuroides), canarygrass (Phalaris minor), chickweed (common chickweed, Stellaria media), cutleaf geranium (Geranium dissectum), galium (catchweed bedstraw, Galium aparine), downy bromegrass (Bromus tectorum), field poppy (Papaver rhoeas), field violet (Viola arvensis), green foxtail (Setaria viridis), deadnettle (henbit deadnettle, Lamium amplexicaule), Italian ryegrass (Lolium multiflorum), kochia (Kochia scoparia), lambsquarters (Chenopodium album), oilseed rape (Brassica napus), pigweed (Amaranthus retroflexus), chamomile (scentless chamomile, Matricaria inodora), Russian thistle (Salsola kali), speedwell (bird's-eye speedwell, Veronica persica), spring barley (Hordeum vulgare), spring wheat (Triticum aestivum), wild buckwheat (Polygonum convolvulus), wild mustard (Sinapis arvensis), wild oat (Avenafatua), wild radish (Raphanus raphanistrum), windgrass (Apera spica-venti), winter barley (Hordeum vulgare), and winter wheat (Triticum aestivum) were planted into a silt loam soil and treated preemergence with test chemicals formulated in a non-phytotoxic solvent mixture which included a surfactant.
(§5) At the same time, these species were planted in pots containing Redi-Earth® planting medium (Scotts Company, 14111 Scottslawn Road, Marysville, Ohio 43041) comprising spaghnum peat moss, vermiculite, wetting agent and starter nutrients and treated with postemergence applications of the test chemicals formulated in the same manner. Plants ranged in height from 2 to 18 cm (1- to 4-leaf stage). Treated plants and controls were maintained in a controlled growth environment for 14 to 21 days after which time all species were compared to controls and visually evaluated. Plant response ratings, summarized in Table D, are based on a scale of 0 to 100 where 0 is no effect and 100 is complete control. A dash (-) response means no test result.

corn (Zea mays) = assay: Test A preemergence; assay type: in vivo; settings: 0 to 100 scale
Procedure, shortened: (§6)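 Injury scores run from 0, no effect, to 100, complete control, judged by eye against untreated plants roughly 10 days after treatment. Chemicals carried a surfactant in a non-phytotoxic solvent and went onto loam–sand soil preemergence or onto one- to two-leaf seedlings postemergence.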

[5] = tested on: large (Lg) crabgrass (Digitaria sanguinalis); assay: Test A preemergence; assay type: in vivo; settings: for Plant response rating, Crabgrass, Large: 0 to 100 scale; for Crabgrass, Large plant response rating: 0 to 100 scale (0 no effect, 100 complete control)
Procedure, shortened: as §6

[6] = tested on: velvetleaf (Abutilon theophrasti); assay: Test A preemergence; assay type: in vivo; settings: for Plant response rating, Velvetleaf: 0 to 100 scale; for Velvetleaf plant response rating: 0 to 100 scale (0 no effect, 100 complete control)
Procedure, shortened: as §6

[7] = tested on: morningglory (Ipomoea spp.); assay: Test A preemergence; assay type: in vivo; settings: for Plant response rating, Morningglory: 0 to 100 scale; for Morningglory plant response rating: 0 to 100 scale (0 no effect, 100 complete control)
Procedure, shortened: as §6

[8] = tested on: wheat (Triticum aestivum); assay: Test A preemergence; assay type: in vivo; settings: for Plant response rating, Wheat: 0 to 100 scale; for Wheat plant response rating: 0 to 100 scale (0 no effect, 100 complete control)
Procedure, shortened: as §6

[9] = tested on: spring wheat (Triticum aestivum); assay: Test D postemergence; assay type: in vivo; settings: scale 0 to 100
From the text: as §4, §5

[10] = tested on: horseweed (Conyza canadensis); assay: Test E preemergence; assay type: in vivo; settings: scale 0 to 100
Procedure, shortened: as §3

| Structure (SMILES) | Plant response rating, Ragweed ([1]; 31 g ai/ha) | Plant response rating, Ragweed ([1]; 125 g ai/ha) | Plant response rating, Crabgrass, Brazil ([2]; 31 g ai/ha) | Plant response rating, Crabgrass, Brazil ([2]; 125 g ai/ha) | Plant response rating, Poinsettia, Wild ([3]; 31 g ai/ha) | Plant response rating, Poinsettia, Wild ([3]; 125 g ai/ha) | Plant response rating, Johnsongrass ([4]; 31 g ai/ha) | Plant response rating, Johnsongrass ([4]; 125 g ai/ha) | Plant response rating, Oat, Wild (wild oat (Avenafatua); 16 g ai/ha) | Plant response rating, Oat, Wild (wild oat (Avenafatua); 31 g ai/ha) | Plant response rating, Oat, Wild (wild oat (Avenafatua); 62 g ai/ha) | Plant response rating, Oat, Wild (wild oat (Avenafatua); 125 g ai/ha) | Plant response rating, Corn (corn (Zea mays); 125 g ai/ha) | Plant response rating, Corn (corn (Zea mays); 500 g ai/ha) | Plant response rating, Crabgrass, Large ([5]; 500 g ai/ha) | Plant response rating, Velvetleaf ([6]; 500 g ai/ha) | Plant response rating, Wheat, Spring ([9]; 16 g ai/ha) | Plant response rating, Wheat, Spring ([9]; 31 g ai/ha) | Plant response rating, Wheat, Spring ([9]; 62 g ai/ha) | Plant response rating, Wheat, Spring ([9]; 125 g ai/ha) | other results |
| --- | --- | --- | --- | --- | --- | --- | --- | --- | --- | --- | --- | --- | --- | --- | --- | --- | --- | --- | --- | --- | --- |
| Fc1cccc(Oc2ncc(Cl)cn2)c1Oc1ncc(C(F)(F)F)cn1 [Compound 43, 5-chloro-2-[5-fluoro-6-[[5-(trifluoromethyl)-2-pyrimidinyl]oxy]phenoxy]pyrimidine] | 50 | 60 | 25 | 40 | 65 | 100 | 90 | 100 | – | – | – | – | – | – | – | – | – | – | – | – | – |
| N#Cc1cccc(Oc2ncc(Cl)cn2)c1Oc1ncc(Cl)cn1 [Compound 3, 2,3-bis[(5-chloro-2-pyrimidinyl)oxy]benzonitrile] | – | – | – | – | – | – | – | – | 15 | 15 | 15 | 20 | 60 | 70 | 100 | 100 | 0 | 0 | 5 | 15 | Plant response rating, Crabgrass, Large ([5]; 125 g ai/ha): 100; Plant response rating, Velvetleaf ([6]; 125 g ai/ha): 100; Plant response rating, Morningglory ([7]; 125 g ai/ha): 100; Plant response rating, Morningglory ([7]; 500 g ai/ha): 100; Plant response rating, Wheat ([8]; 125 g ai/ha): 30; Plant response rating, Wheat ([8]; 500 g ai/ha): 80 |
| FC(F)(F)c1cnc(Oc2c(Br)cccc2Oc2ncc(Cl)cn2)nc1 [Compound 24] | – | – | – | – | – | – | – | – | 15 | 20 | 25 | 35 | – | – | – | – | 10 | 15 | 20 | 20 | – |
| Fc1ccc(F)c(Oc2ncc(Cl)cn2)c1Oc1ncc(Cl)cn1 [Compound 34, 2,2′-[(3,6-difluoro-1,2-phenylene)bis(oxy)]bis[5-chloropyrimidine]] | – | – | – | – | 10 | 50 | – | – | – | – | – | – | – | – | – | – | – | – | – | – | Plant response rating, Poinsettia, Wild ([3]; 16 g ai/ha): 0; Plant response rating, Poinsettia, Wild ([3]; 62 g ai/ha): 20; Plant response rating, Horseweed ([10]; 16 g ai/ha): 0; Plant response rating, Horseweed ([10]; 31 g ai/ha): 0; Plant response rating, Horseweed ([10]; 62 g ai/ha): 0; Plant response rating, Horseweed ([10]; 125 g ai/ha): 0 |
| N#Cc1cccc(Oc2ncc(Cl)cn2)c1Oc1ncc(C(F)(F)F)cn1 [Compound 38, 3-[(5-chloro-2-pyrimidinyl)oxy]-2-[[5-(trifluoromethyl)-2-pyrimidinyl]oxy]-benzonitrile] | 20 | 50 | 15 | 20 | – | – | 0 | 95 | – | – | – | – | – | – | – | – | – | – | – | – | Plant response rating, Ragweed ([1]; 16 g ai/ha): 20; Plant response rating, Ragweed ([1]; 62 g ai/ha): 40; Plant response rating, Crabgrass, Brazil ([2]; 16 g ai/ha): 10; Plant response rating, Crabgrass, Brazil ([2]; 62 g ai/ha): 20; Plant response rating, Johnsongrass ([4]; 16 g ai/ha): 0; Plant response rating, Johnsongrass ([4]; 62 g ai/ha): 100; Plant response rating, Horseweed ([10]; 16 g ai/ha): 0; Plant response rating, Horseweed ([10]; 31 g ai/ha): 0; Plant response rating, Horseweed ([10]; 62 g ai/ha): 100; Plant response rating, Horseweed ([10]; 125 g ai/ha): 98 |
| N#Cc1cccc(Oc2ncc(Cl)cn2)c1Oc1ccc(Cl)cc1 [Compound 36] | 25 | 50 | 20 | 30 | – | – | – | – | – | – | – | – | – | – | – | – | – | – | – | – | Plant response rating, Ragweed ([1]; 16 g ai/ha): 15; Plant response rating, Ragweed ([1]; 62 g ai/ha): 35; Plant response rating, Crabgrass, Brazil ([2]; 16 g ai/ha): 20; Plant response rating, Crabgrass, Brazil ([2]; 62 g ai/ha): 30 |
| Fc1cccc(Oc2ncc(Cl)cn2)c1Oc1ncc(Cl)cn1 [Compound 21, 2,2′-[[3-fluoro-1,2-phenylene]bis(oxy)]bis[5-chloropyrimidine]] | – | – | – | – | 10 | 60 | 30 | 100 | – | – | – | – | 40 | 60 | 100 | 90 | – | – | – | – | Plant response rating, Poinsettia, Wild ([3]; 16 g ai/ha): 0; Plant response rating, Poinsettia, Wild ([3]; 62 g ai/ha): 50; Plant response rating, Johnsongrass ([4]; 16 g ai/ha): 0; Plant response rating, Johnsongrass ([4]; 62 g ai/ha): 65; Crabgrass, Large plant response rating ([5]; 125 g ai/ha): 100; Velvetleaf plant response rating ([6]; 125 g ai/ha): 80; Morningglory plant response rating ([7]; 125 g ai/ha): 90; Plant response rating, Morningglory ([7]; 500 g ai/ha): 100; Wheat plant response rating ([8]; 125 g ai/ha): 60; Plant response rating, Wheat ([8]; 500 g ai/ha): 60 |
| Clc1cnc(Oc2cccc(Br)c2Oc2ncc(Cl)cn2)nc1 [Compound 19, 2,2′-[[3-bromo-1,2-phenylene]bis(oxy)]bis[5-chloropyrimidine]] | – | – | – | – | 0 | 70 | 0 | 100 | – | – | – | – | 10 | 60 | 100 | 90 | – | – | – | – | Plant response rating, Poinsettia, Wild ([3]; 16 g ai/ha): 0; Plant response rating, Poinsettia, Wild ([3]; 62 g ai/ha): 15; Plant response rating, Johnsongrass ([4]; 16 g ai/ha): 0; Plant response rating, Johnsongrass ([4]; 62 g ai/ha): 50; Crabgrass, Large plant response rating ([5]; 125 g ai/ha): 100; Velvetleaf plant response rating ([6]; 125 g ai/ha): 80; Morningglory plant response rating ([7]; 125 g ai/ha): 70; Plant response rating, Morningglory ([7]; 500 g ai/ha): 100; Wheat plant response rating ([8]; 125 g ai/ha): 40; Plant response rating, Wheat ([8]; 500 g ai/ha): 70 |
| Fc1cnc(Oc2c(Br)cccc2Oc2ncc(Cl)cn2)nc1 [Compound 22] | – | – | – | – | – | – | – | – | 10 | 25 | 35 | 45 | – | – | – | – | 5 | 5 | 10 | 15 | – |
| Fc1cnc(Oc2c(F)cccc2Oc2ncc(Cl)cn2)nc1 [Compound 23] | – | – | – | – | – | – | – | – | 15 | 15 | 20 | 35 | – | – | – | – | 0 | 5 | 5 | 10 | – |
